The test system of assay [1] is KURAMOCHI
The assay is described as follows: drug sensitivity score (DSS2) on cancer cell count; higher = more sensitive; extreme values may be limits of the assay. The following applies: 72 h. Put shortly:
(§1)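 Ovarian cancer cells were cultured either alone or directly mixed 1:1 with lung or skin fibroblasts and plated onto 384-well plates acoustically pre-spotted with 528 approved and investigational compounds at 5 concentrations for 72 h of treatment. After fixation, cells were immunostained for CK8/18 with Hoechst and imaged at 10× across 4 fields to count cancer cells. Responses were fitted with 4-parameter logistic curves, and from these fits a drug sensitivity score was derived in Breeze, with screen quality assessed by Z'.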

Assay [2] deals with OVCAR8. The description is as above. Conditions: 72 h. Put shortly: as §1
Where [3] appears, read: co-cultured fibroblast: BJHTERT.
[4] abbreviates: co-cultured fibroblast: none (monoculture).

Consider `CCCc1cc(C)[nH]c(=O)c1CNC(=O)c1cc(-c2ccnc(N3CCN(C)CC3)c2)cc2c1cnn2C(C)C` [GSK343], for which the drug sensitivity score was 0 DSS in assay [1] (setting [3]); 0 DSS in assay [1] (co-cultured fibroblast: WI38); 0 DSS in assay [1] (setting [4]); 1 DSS in assay [2] (setting [3]); 0 DSS in assay [2] (co-cultured fibroblast: WI38); 0 DSS in assay [2] (setting [4]).

On to `NC1(c2ccc(-c3nc4ccn5c(=O)[nH]nc5c4cc3-c3ccccc3)cc2)CCC1` [MK-2206], for which the drug sensitivity score in assay [1] (setting [3]) worked out at 5.8 DSS; in assay [1] (co-cultured fibroblast: WI38), 1.4 DSS; in assay [1] (setting [4]), 16.1 DSS; in assay [2] (setting [3]), 0.2 DSS; in assay [2] (co-cultured fibroblast: WI38), 0 DSS; in assay [2] (setting [4]), 0.3 DSS.

For the compound `CCCN(CCC)C(=O)C1=Cc2ccc(-c3ccc(C(=O)N4CCCC4)cc3)cc2N=C(N)C1` [Motolimod], the drug sensitivity score in assay [1] (setting [3]) was 1.3 DSS; in assay [1] (co-cultured fibroblast: WI38), 0 DSS; in assay [1] (setting [4]), 1 DSS; in assay [2] (setting [3]), 0 DSS; in assay [2] (co-cultured fibroblast: WI38), 0 DSS; in assay [2] (setting [4]), 2.4 DSS.

Turning to `C[C@@H](Oc1ccc2[nH]nc(/C=C/c3cnn(CCO)c3)c2c1)c1c(Cl)cncc1Cl`, the drug sensitivity score in assay [1] (setting [3]) came to 5.7 DSS; in assay [1] (co-cultured fibroblast: WI38), 2.2 DSS; in assay [1] (setting [4]), 6.7 DSS; in assay [2] (setting [3]) it was 8.2 DSS; in assay [2] (co-cultured fibroblast: WI38), 9.2 DSS; in assay [2] (setting [4]), 8 DSS.

Take `CNC(=O)c1cc(COc2nnc(Nc3ccc(Cl)cc3)c3ccoc23)ccn1` [Telatinib]: the drug sensitivity score in assay [1] (setting [3]) was determined as 0 DSS; in assay [1] (co-cultured fibroblast: WI38), 0.4 DSS; in assay [1] (setting [4]), 16.6 DSS; in assay [2] (setting [3]), 1.1 DSS; in assay [2] (co-cultured fibroblast: WI38), 0 DSS; in assay [2] (setting [4]), 0 DSS.

Take `CCNC(=O)C[C@@H]1N=C(c2ccc(Cl)cc2)c2cc(OC)ccc2-n2c(C)nnc21` [Molibresib]: the drug sensitivity score amounted to 6.5 DSS in assay [1] (setting [3]); 9.9 DSS in assay [1] (co-cultured fibroblast: WI38); 6.7 DSS in assay [1] (setting [4]); 12.2 DSS in assay [2] (setting [3]); 5.8 DSS in assay [2] (co-cultured fibroblast: WI38); 13.6 DSS in assay [2] (setting [4]).

Take `COc1cc2ncnc(Nc3cccc(Cl)c3F)c2cc1OC(=O)N1CCN(C)C[C@H]1C` [AZD3759]: the drug sensitivity score is 1.1 DSS in assay [1] (setting [3]); 0 DSS in assay [1] (co-cultured fibroblast: WI38); 0 DSS in assay [1] (setting [4]); 0.8 DSS in assay [2] (setting [3]); 3.6 DSS in assay [2] (co-cultured fibroblast: WI38); 0 DSS in assay [2] (setting [4]).

Regarding `CCCCC(=O)OCC(=O)[C@]1(O)Cc2c(O)c3c(c(O)c2[C@@H](O[C@H]2C[C@H](NC(=O)C(F)(F)F)[C@H](O)[C@H](C)O2)C1)C(=O)c1c(OC)cccc1C3=O` [Valrubicin], the drug sensitivity score in assay [1] (setting [3]) came out at 19.7 DSS; in assay [1] (co-cultured fibroblast: WI38), 17.1 DSS; in assay [1] (setting [4]), 24.1 DSS; in assay [2] (setting [3]) it was 17.6 DSS; in assay [2] (co-cultured fibroblast: WI38), 15.3 DSS; in assay [2] (setting [4]) it was 18.4 DSS.

In the case of `COc1ccc(-c2ccc3ncc4c(c3c2)n(-c2ccc(N3CCNCC3)c(C(F)(F)F)c2)c(=O)n4C)cn1` [NVP-BGT226], the drug sensitivity score in assay [1] (setting [3]) amounted to 18.2 DSS; in assay [1] (co-cultured fibroblast: WI38), 19.5 DSS; in assay [1] (setting [4]) it was 18.3 DSS; in assay [2] (setting [3]), 19.5 DSS; in assay [2] (co-cultured fibroblast: WI38) it was 12 DSS; in assay [2] (setting [4]), 21.7 DSS.

For `Nc1nc(Cl)nc2c1ncn2[C@@H]1O[C@H](CO)[C@@H](O)[C@@H]1F` [Clofarabine], the drug sensitivity score was determined as 13 DSS in assay [1] (setting [3]); 19.7 DSS in assay [1] (co-cultured fibroblast: WI38); 10.7 DSS in assay [1] (setting [4]); 30.7 DSS in assay [2] (setting [3]); 28.7 DSS in assay [2] (co-cultured fibroblast: WI38); 27.7 DSS in assay [2] (setting [4]).

On to `COc1cc(N2CCC(N3CCN(C)CC3)CC2)ccc1Nc1ncc(Cl)c(Nc2ccccc2P(C)(C)=O)n1` [Brigatinib], for which the drug sensitivity score in assay [1] (setting [3]) worked out at 0.1 DSS; in assay [1] (co-cultured fibroblast: WI38), 0 DSS; in assay [1] (setting [4]), 0 DSS; in assay [2] (setting [3]), 4.3 DSS; in assay [2] (co-cultured fibroblast: WI38) it was 7.9 DSS; in assay [2] (setting [4]) it was 2.2 DSS.

As for `O=C(/C=C/c1cccnc1)NCCCCC1CCN(C(=O)c2ccccc2)CC1` [Daporinad], the drug sensitivity score in assay [1] (setting [3]) is 16 DSS; in assay [1] (co-cultured fibroblast: WI38) it was 12.6 DSS; in assay [1] (setting [4]), 20.4 DSS; in assay [2] (setting [3]), 22.5 DSS; in assay [2] (co-cultured fibroblast: WI38), 22.2 DSS; in assay [2] (setting [4]), 27.1 DSS.

For the origin of these results see the supplement of paper PMC12420376.
